≈ marks a conversion by molar mass, not a printed value. Calls of active or inactive are those of the source. The calls are words filed in the database; no cut-off is given here.
What was measured:
NaV1.5 = NaV1.5 (Homo sapiens, UniProt Q14524); experiment: Inhibition of human NaV1.5 at 10 uM relative to control
[1] = Plasma protein binding in mouse assessed as unbound fraction at 5 uM incubated for 4 hrs by equllibrium dialysis method; format: ADME, cell-free
Cytochrome P450 3A4 = Cytochrome P450 3A4 (Homo sapiens, UniProt P08684); experiment: Inhibition of CYP3A4 (unknown origin); format: ADME
[2] = Thermodynamic aqueous solubility of the compound at pH 2; format: physicochemical; conditions: read-out: Therm_solubility
[3] = target: Phosphatidylinositol 4,5-bisphosphate 3-kinase catalytic subunit alpha isoform (Homo sapiens, UniProt P42336, H1047R)
[4] = Oral bioavailability in Sprague-Dawley rat plasma at 5 mg/kg measured upto 8 hrs by LC-MS/MS method; format: ADME, organism-based
[5] = target: T1, Phosphatidylinositol 4,5-bisphosphate 3-kinase catalytic subunit delta isoform (Homo sapiens) (UniProt O00329); experiment: Inhibition of PI3Kdelta in human B-cells assessed as reduction in CD69 expression preincubated for 1 hr followed by IgM stimulation for 18 hrs by flow cytometry analysis; format: cell-based; conditions: B-cell
T1 sequence (whole entry): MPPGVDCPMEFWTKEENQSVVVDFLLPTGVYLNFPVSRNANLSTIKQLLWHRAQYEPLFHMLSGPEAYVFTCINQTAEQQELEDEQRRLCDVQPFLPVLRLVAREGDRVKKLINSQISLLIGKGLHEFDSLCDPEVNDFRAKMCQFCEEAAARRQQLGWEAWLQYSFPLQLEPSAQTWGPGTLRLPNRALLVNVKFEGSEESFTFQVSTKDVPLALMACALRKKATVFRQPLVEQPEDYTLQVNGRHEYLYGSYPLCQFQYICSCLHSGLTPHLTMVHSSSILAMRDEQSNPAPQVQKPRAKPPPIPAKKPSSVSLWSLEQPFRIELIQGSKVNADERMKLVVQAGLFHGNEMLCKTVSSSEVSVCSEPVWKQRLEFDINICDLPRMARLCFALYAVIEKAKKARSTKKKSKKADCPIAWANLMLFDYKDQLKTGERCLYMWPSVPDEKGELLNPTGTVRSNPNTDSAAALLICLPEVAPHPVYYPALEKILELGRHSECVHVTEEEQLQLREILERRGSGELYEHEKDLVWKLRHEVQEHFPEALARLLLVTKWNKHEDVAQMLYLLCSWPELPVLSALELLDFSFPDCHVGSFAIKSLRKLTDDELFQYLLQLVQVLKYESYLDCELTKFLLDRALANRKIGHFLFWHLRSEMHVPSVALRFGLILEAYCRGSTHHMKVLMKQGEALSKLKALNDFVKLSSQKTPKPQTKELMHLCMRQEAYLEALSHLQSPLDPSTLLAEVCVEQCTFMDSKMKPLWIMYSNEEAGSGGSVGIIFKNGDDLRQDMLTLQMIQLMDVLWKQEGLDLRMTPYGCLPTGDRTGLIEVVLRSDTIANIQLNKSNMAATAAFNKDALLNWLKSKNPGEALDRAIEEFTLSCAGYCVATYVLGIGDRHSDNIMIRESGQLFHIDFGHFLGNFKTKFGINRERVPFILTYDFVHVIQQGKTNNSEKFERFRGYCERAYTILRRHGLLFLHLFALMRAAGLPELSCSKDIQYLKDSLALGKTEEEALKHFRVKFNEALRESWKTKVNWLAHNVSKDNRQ

HCC1954 [6] = experiment: Antitumor activity against human HCC1954 cells xenografted in mouse assessed as tumor growth inhibition at 25 mg/kg, po QD; format: functional; conditions: read-out: TGI
[7] = Thermodynamic solubility of the compound in FaSSIF; format: physicochemical; conditions: read-out: Therm_solubility
Homo sapiens = species on record: Homo sapiens; experiment: Inhibition of PI3KC2b (unknown origin) at 1 uM relative to control
[8] = Thermodynamic solubility of the compound in FaSSGF; format: physicochemical; conditions: read-out: Therm_solubility
[9] = system: Phosphatidylinositol 4,5-bisphosphate 3-kinase catalytic subunit alpha isoform (Homo sapiens), P42336 [H1047R]; experiment: Induction of P110alpha H1047R mutant degradation in human HCC1954 cells at 0.012 to 1 uM after 24 hrs; format: cell-based; conditions: dose 0.012-1 µM
Cytochrome P450 2C19 = Cytochrome P450 2C19 (Homo sapiens, UniProt P33261); experiment: Inhibition of CYP2C19 (unknown origin); format: ADME
[10] = Antiproliferative activity against human KPL-4 cells assessed as reduction in cell viability incubated for 4 days by Celltiter-Glo luminescence assay; format: functional, cell-based; conditions: KPL4, 96 h
Mus musculus = experiment: In vivo PI3K degradation in human HCC1954 cells xenografted in mouse at 50 mg/kg, po; format: functional, organism-based
[11] = AUC in NCR nude mouse at 5 mg/kg, po measured upto 8 hrs by LC-MS/MS analysis; format: ADME, organism-based; set-up: time < 8 hrs, dose 5 mg/kg, route po; conditions: in vivo
[12] = Lipophilicity, logD of compound in 1-Octanol/PBS at pH 7.4 by LC-MS/MS method; format: physicochemical
[13] = Thermodynamic aqueous solubility of the compound at pH 7.4; format: physicochemical; conditions: read-out: Therm_solubility
Cytochrome P450 1A2 = target: T2, Cytochrome P450 1A2 (Homo sapiens, UniProt P05177); experiment: Inhibition of CYP1A2 (unknown origin); format: ADME
T2 sequence (P05177 whole entry): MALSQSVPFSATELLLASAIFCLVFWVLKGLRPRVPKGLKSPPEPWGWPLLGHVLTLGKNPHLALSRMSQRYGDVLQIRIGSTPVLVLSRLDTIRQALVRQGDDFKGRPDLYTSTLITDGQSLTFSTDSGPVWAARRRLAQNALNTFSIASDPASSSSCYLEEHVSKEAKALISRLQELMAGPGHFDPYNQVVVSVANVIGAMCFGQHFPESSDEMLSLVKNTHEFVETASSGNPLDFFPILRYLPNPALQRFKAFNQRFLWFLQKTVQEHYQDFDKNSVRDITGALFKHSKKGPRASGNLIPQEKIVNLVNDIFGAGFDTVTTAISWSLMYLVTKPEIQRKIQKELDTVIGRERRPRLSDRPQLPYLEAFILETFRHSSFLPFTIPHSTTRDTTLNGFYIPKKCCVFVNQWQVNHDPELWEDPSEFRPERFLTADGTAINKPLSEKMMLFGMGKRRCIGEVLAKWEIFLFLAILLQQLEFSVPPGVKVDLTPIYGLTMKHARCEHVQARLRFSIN

HCC1954 [14] = experiment: Antitumor activity against human HCC1954 cells xenografted in mouse assessed as tumor growth inhibition at 50 mg/kg, po QD; format: functional; conditions: read-out: TGI
[15] = Oral bioavailability in NCR nude mouse at 5 mg/kg measured upto 8 hrs by LC-MS/MS analysis; format: ADME, organism-based; conditions: in vivo
hERG (KCNH2) = hERG (KCNH2) (Homo sapiens, UniProt Q12809); experiment: Inhibition of human ERG at 10 uM relative to control; format: toxicity
MCF7 = experiment: Antiproliferative activity against human MCF7 cells assessed as reduction in cell viability incubated for 4 days by Celltiter-Glo luminescence assay; format: functional, cell-based; conditions: MCF7, 96 h
[16] = Plasma protein binding in rat assessed as unbound fraction at 5 uM incubated for 4 hrs by equllibrium dialysis method; format: ADME, cell-free
[17] = Clearance in SCID-Beige mouse plasma at 1 mg/kg, iv measured upto 24 hrs by LC-MS/MS analysis; format: ADME, organism-based

Sequence of Cytochrome P450 2C19 (P33261 whole entry): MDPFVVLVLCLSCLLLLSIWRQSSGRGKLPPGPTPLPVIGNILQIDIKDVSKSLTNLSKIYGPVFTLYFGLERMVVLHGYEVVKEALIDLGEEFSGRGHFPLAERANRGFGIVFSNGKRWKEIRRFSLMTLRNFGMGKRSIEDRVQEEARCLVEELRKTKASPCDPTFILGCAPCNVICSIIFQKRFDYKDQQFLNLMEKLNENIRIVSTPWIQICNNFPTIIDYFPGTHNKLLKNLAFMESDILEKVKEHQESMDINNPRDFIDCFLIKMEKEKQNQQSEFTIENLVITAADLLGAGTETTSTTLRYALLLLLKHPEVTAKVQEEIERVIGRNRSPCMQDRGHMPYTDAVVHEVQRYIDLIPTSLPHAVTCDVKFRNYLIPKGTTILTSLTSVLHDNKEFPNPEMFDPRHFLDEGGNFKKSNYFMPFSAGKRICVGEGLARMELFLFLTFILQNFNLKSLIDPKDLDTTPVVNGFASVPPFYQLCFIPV
Sequence of Phosphatidylinositol 4,5-bisphosphate 3-kinase catalytic subunit alpha isoform (Homo sapiens), P42336 [H1047R] (P42336 whole entry H1047R, canonical isoform): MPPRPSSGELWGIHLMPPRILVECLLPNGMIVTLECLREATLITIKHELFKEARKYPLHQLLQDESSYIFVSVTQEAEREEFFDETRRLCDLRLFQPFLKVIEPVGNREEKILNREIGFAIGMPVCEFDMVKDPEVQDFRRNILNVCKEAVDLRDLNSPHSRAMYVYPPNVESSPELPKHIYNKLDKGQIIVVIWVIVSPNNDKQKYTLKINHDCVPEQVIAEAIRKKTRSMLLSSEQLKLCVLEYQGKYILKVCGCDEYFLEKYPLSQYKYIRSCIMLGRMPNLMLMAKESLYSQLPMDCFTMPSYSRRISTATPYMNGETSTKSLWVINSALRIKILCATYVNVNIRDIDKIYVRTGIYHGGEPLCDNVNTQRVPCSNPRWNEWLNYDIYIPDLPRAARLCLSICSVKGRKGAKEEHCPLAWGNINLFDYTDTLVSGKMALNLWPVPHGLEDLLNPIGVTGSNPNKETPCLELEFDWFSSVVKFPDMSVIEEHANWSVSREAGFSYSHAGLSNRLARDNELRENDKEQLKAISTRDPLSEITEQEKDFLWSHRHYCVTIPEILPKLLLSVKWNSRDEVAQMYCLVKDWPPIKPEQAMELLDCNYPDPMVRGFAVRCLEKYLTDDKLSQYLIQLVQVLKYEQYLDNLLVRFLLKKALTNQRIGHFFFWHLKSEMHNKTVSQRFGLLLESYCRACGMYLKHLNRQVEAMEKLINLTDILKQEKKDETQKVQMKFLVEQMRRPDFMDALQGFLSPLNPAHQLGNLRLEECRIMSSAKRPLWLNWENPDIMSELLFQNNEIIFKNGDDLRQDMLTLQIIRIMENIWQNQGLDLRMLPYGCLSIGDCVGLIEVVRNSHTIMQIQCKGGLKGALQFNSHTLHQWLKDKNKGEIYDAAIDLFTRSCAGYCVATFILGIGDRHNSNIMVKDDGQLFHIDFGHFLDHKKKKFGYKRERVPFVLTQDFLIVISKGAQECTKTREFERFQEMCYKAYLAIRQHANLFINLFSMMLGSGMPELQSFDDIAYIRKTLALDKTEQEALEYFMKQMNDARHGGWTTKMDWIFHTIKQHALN
Sequence of Phosphatidylinositol 4,5-bisphosphate 3-kinase catalytic subunit alpha isoform (P42336 whole entry H1047R, canonical isoform): as above
Sequence of Cytochrome P450 3A4 (P08684 whole entry): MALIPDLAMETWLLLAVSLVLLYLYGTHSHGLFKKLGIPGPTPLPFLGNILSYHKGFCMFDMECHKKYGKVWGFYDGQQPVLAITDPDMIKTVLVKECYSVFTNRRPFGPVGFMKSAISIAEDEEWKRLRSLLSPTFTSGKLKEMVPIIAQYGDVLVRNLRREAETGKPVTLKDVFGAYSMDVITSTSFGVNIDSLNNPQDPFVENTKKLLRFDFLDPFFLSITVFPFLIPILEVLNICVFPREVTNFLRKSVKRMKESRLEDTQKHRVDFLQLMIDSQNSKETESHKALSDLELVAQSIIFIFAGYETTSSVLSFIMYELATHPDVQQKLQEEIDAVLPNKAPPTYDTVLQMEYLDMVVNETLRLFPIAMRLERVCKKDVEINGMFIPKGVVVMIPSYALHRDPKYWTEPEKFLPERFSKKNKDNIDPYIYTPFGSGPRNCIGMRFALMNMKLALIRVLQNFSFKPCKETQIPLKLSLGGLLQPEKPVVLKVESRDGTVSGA
Sequence of hERG (KCNH2) (Q12809 whole entry): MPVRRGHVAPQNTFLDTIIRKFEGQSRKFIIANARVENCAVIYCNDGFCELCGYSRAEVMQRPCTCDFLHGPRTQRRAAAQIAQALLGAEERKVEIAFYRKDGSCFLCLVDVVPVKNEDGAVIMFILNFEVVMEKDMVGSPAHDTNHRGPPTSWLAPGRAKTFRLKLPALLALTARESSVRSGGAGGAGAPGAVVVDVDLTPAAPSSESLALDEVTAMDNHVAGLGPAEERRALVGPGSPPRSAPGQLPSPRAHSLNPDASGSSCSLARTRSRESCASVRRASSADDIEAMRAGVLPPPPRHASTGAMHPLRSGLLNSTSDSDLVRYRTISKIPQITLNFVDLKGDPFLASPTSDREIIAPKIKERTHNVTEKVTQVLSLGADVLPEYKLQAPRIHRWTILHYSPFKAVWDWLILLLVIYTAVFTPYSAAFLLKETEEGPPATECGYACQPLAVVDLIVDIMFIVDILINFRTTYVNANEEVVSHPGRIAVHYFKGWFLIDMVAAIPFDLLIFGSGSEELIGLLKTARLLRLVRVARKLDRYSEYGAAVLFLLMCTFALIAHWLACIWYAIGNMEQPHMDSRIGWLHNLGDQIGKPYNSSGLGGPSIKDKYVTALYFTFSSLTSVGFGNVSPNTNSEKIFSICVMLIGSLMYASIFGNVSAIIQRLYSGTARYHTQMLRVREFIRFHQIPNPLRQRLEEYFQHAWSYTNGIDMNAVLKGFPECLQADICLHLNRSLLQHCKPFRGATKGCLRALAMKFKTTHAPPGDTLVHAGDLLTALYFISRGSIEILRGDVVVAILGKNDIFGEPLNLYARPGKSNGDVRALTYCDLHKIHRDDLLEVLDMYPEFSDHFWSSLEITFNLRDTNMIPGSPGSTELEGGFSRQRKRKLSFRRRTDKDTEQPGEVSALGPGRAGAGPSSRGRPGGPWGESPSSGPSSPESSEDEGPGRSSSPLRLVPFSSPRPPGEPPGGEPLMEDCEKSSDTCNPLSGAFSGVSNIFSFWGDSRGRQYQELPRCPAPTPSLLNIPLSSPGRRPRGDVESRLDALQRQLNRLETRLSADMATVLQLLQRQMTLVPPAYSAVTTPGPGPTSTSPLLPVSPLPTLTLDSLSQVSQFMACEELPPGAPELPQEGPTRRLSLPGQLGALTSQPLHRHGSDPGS

In the case of `C[C@H](Nc1ccc2c(c1)OCCn1cc(N3C(=O)OC[C@H]3C(F)F)nc1-2)C(N)=O` [INAVOLISIB], the inhibition at 10 µM (NaV1.5) is reported as under 20%, the fraction unbound at 4 h, 5 µM [1] is reported as 0.261 and the IC50 (Cytochrome P450 3A4) is reported as over 10000 nM. It also gave a solubility thermodynamic [2] of 615 µg/mL (≈ 1510 µM), an EC50 [3] of 19 nM and a bioavailability [4] of 58%. For the same compound, the IC90 [5] was 276 nM, the inhibition in vivo at 25 mg/kg (HCC1954 [6]) was 140% and the solubility thermodynamic [7] was 36 µg/mL (≈ 88.4 µM). The inhibition (Homo sapiens) was over 80%, the solubility thermodynamic [8] was 1600 µg/mL (≈ 3930 µM) and the Activity [9] was “Active”. For the same compound, the IC50 (Cytochrome P450 2C19) was over 10000 nM, the EC50 [10] was 10 nM and the inhibition (Mus musculus) was “Active”. The AUC at 8 h [11] was 2.5 µM·h, the logD [12] was 0.8 and the solubility thermodynamic [13] was 38 µg/mL (≈ 93.3 µM). It also gave an IC50 (Cytochrome P450 1A2) of over 10000 nM, an inhibition in vivo at 50 mg/kg (HCC1954 [14]) of 149% and a bioavailability [15] of 45%. The inhibition at 10 µM (hERG (KCNH2)) was under 20%, the EC50 (MCF7) was 30 nM and the fraction unbound at 4 h, 5 µM [16] was 0.608. For the same compound, the clearance [17] was 37 mL/min/kg.
